Experimental data from patent US20240246967A1, “AXL COMPOUNDS” (ARCUS BIOSCIENCES, INC., priority 2021, published 2024).

Assays:
Axl [1] = molecular target: T1, Axl (Homo sapiens, UniProt P30530); test: Axl NanoBRET intracellular kinase assay (intracellular binding, Cell Binding); design: host or cells: HEK-293; details: HEK-293 cells transfected with Axl-NanoLuc fusion vector; 0.35 μM K-5 NanoBRET tracer
T1 sequence (P30530 26-894): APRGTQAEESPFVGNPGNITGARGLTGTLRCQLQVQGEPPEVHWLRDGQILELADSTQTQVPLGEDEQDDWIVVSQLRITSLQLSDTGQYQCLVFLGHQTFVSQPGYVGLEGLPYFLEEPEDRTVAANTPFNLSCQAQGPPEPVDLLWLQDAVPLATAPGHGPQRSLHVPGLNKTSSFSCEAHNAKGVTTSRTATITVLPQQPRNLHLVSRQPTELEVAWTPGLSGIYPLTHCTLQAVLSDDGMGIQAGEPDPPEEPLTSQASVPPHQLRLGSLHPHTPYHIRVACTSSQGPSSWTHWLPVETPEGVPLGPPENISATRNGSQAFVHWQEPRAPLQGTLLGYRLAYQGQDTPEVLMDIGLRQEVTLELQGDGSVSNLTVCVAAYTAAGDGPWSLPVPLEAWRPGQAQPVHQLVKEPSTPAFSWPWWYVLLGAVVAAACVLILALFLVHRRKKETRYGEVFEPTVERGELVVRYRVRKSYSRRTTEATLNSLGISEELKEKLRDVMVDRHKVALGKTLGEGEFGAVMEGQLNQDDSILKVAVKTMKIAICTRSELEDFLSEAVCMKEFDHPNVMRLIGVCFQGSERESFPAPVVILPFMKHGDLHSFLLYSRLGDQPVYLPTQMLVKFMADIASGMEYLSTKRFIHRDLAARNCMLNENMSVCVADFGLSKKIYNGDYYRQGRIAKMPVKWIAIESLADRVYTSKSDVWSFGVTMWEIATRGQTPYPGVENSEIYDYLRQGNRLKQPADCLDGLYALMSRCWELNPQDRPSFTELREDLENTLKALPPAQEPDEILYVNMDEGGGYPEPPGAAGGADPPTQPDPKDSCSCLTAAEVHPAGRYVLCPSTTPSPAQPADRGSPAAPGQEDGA
How it was run: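 In intact HEK-293 cells transiently expressing NanoLuc-tagged Axl, compounds compete with the K-5 tracer (0.35 μM, 2 h, 37 °C) after a 1 h preincubation. Readout is the 610/450 nm emission ratio.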

Axl [2] = molecular target: T1, Axl; test: HTRF KinEASE-TK biochemical potency assay, AXL; design: purchased Invitrogen; details: 5 nM AXL, 700 μM ATP, 800 nM TK Substrate-biotin
How it was run: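 Final conditions: 5 nM AXL, 1 nM TYRO3 or MER, 50 mM HEPES pH 7.4, 10 mM MgCl2, 0.01% BSA, 1 mM DTT, 700 μM ATP. Reaction ran 2 h at RT after 1 h preincubation with compound; HTRF signal read at 665/620 nm.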

C[C@@H]1CCCN1C1(C)CCc2ccc(-c3cnc4[nH]nc(-c5ccc(S(N)(=O)=O)c(Cl)c5)c4c3)cc2CC1 (stereo partly drawn) [Example 93, 2-Chloro-4-(5-(7-methyl-7-((R)-2-methylpyrrolidin-1-yl)-6,7,8,9-tetrahydro-5H-benzo[7]annulen-2-yl)-1H-pyrazolo[3,4-b]pyridin-3-yl)benzenesulfonamide]
IC50 (Axl [1]): < 100 nM
IC50 (Axl [2]): < 100 nM

C[C@@H]1CCCN1C1CCc2ccc(-c3cnc4[nH]nc(-c5ccc(C6(O)COC6)c(Cl)c5)c4c3)cc2CC1 (stereo partly drawn) [Example 64, 3-[2-Chloro-4-(5-{7-[(2R)-2-methylpyrrolidin-1-yl]-6,7,8,9-tetrahydro-5H-benzo[7]annulen-2-yl}-1H-pyrazolo[3,4-b]pyridin-3-yl)phenyl]oxetan-3-ol]
IC50 (Axl [1]): > 1000 nM
IC50 (Axl [2]): < 100 nM

NC(=O)c1ccc(-c2n[nH]c3ncc(-c4ccc5c(c4)CCC(N4CCCC4)CC5)cc23)cc1F (stereo not shown) [Example 81, 2-Fluoro-4-(5-(7-(pyrrolidin-1-yl)-6,7,8,9-tetrahydro-5H-benzo[7]annulen-2-yl)-1H-pyrazolo[3,4-b]pyridin-3-yl)benzamide]
IC50 (Axl [1]): < 100 nM
IC50 (Axl [2]): < 100 nM

Cc1cc(-c2n[nH]c3ncc(-c4ccc5c(c4)CCC(N4CCCC4)CC5)cc23)cc(F)c1C(N)=O (stereo not shown) [Example 79, 2-Fluoro-6-methyl-4-(5-(7-(pyrrolidin-1-yl)-6,7,8,9-tetrahydro-5H-benzo[7]annulen-2-yl)-1H-pyrazolo[3,4-b]pyridin-3-yl)benzamide]
IC50 (Axl [1]): < 100 nM
IC50 (Axl [2]): < 100 nM

NS(=O)(=O)c1ccc(-c2n[nH]c3ncc(-c4ccc5c(c4)CCN(C4CCCC4)CC5)cc23)cc1Cl [Example 92, 2-Chloro-4-(5-(3-cyclopentyl-2,3,4,5-tetrahydro-1H-benzo[d]azepin-7-yl)-1H-pyrazolo[3,4-b]pyridin-3-yl)benzenesulfonamide]
IC50 (Axl [1]): 100 to 1000 nM
IC50 (Axl [2]): < 100 nM

COc1cc(-c2n[nH]c3ncc(-c4ccc5c(c4)CCC(C)(N4CCC[C@H]4C)CC5)cc23)ccc1S(N)(=O)=O (stereo partly drawn) [Example 87, 2-Methoxy-4-(5-(7-methyl-7-((R)-2-methylpyrrolidin-1-yl)-6,7,8,9-tetrahydro-5H-benzo[7]annulen-2-yl)-1H-pyrazolo[3,4-b]pyridin-3-yl)benzenesulfonamide]
IC50 (Axl [1]): 100 to 1000 nM
IC50 (Axl [2]): < 100 nM

CCC1(N2CCC[C@H]2CO)CCc2ccc(-c3cnc4[nH]nc(-c5ccc(C(N)=O)c(Cl)c5)c4c3)cc2CC1 (stereo partly drawn) [Example 75, 2-Chloro-4-(5-{7-ethyl-7-[(2S)-2-(hydroxymethyl)pyrrolidin-1-yl]-6,7,8,9-tetrahydro-5H-benzo[7]annulen-2-yl}-1H-pyrazolo[3,4-b]pyridin-3-yl)benzamide]
IC50 (Axl [1]): < 100 nM
IC50 (Axl [2]): < 100 nM

COC1CCN(C(=O)c2ccc(-c3n[nH]c4ncc(-c5ccc6c(c5)CCC(C)(N5CCC[C@H]5C)CC6)cc34)cc2Cl)CC1 (stereo partly drawn) [Example 67, 1-[2-Chloro-4-(5-{7-methyl-7-[(2R)-2-methylpyrrolidin-1-yl]-6,7,8,9-tetrahydro-5H-benzo[7]annulen-2-yl}-1H-pyrazolo[3,4-b]pyridin-3-yl)benzoyl]-4-methoxypiperidine]
IC50 (Axl [1]): < 100 nM
IC50 (Axl [2]): < 100 nM

CC1(N2CCC[C@@H]2CO)CCc2ccc(-c3cnc4[nH]nc(-c5ccc(S(=O)(=O)C6CC6)cc5)c4c3)cc2CC1 (stereo partly drawn) [Example 3, [(2R)-1-(2-{3-[4-(Cyclopropanesulfonyl)phenyl]-1H-pyrazolo[3,4-b]pyridin-5-yl}-7-methyl-6,7,8,9-tetrahydro-5H-benzo[7]annulen-7-yl)pyrrolidin-2-yl]methanol]
IC50 (Axl [1]): < 100 nM
IC50 (Axl [2]): < 100 nM

C[C@@H]1CCCN1C1CCc2ccc(-c3cnc4[nH]nc(-c5cnc(C(C)(C)O)c(Cl)c5)c4c3)cc2CC1 (stereo partly drawn) [Example 65, 2-[3-Chloro-5-(5-{7-[(2R)-2-methylpyrrolidin-1-yl]-6,7,8,9-tetrahydro-5H-benzo[7]annulen-2-yl}-1H-pyrazolo[3,4-b]pyridin-3-yl)pyridin-2-yl]propan-2-ol]
IC50 (Axl [1]): < 100 nM
IC50 (Axl [2]): < 100 nM

NC(=O)c1ccc(-c2n[nH]c3ncc(-c4ccc5c(c4)CCC(N4CCCC4)CC5)cc23)cc1Cl (stereo not shown) [Example 77, 2-Chloro-4-(5-(7-(pyrrolidin-1-yl)-6,7,8,9-tetrahydro-5H-benzo[7]annulen-2-yl)-1H-pyrazolo[3,4-b]pyridin-3-yl)benzamide]
IC50 (Axl [1]): < 100 nM
IC50 (Axl [2]): < 100 nM

NS(=O)(=O)c1ccc(-c2n[nH]c3ncc(-c4ccc5c(c4)CC[C@@H](N4CCCC4)CC5)cc23)cc1Cl [Example 91, (S)-2-Chloro-4-(5-(7-(pyrrolidin-1-yl)-6,7,8,9-tetrahydro-5H-benzo[7]annulen-2-yl)-1H-pyrazolo[3,4-b]pyridin-3-yl)benzenesulfonamide]
IC50 (Axl [1]): < 100 nM
IC50 (Axl [2]): < 100 nM

COCCNC(=O)c1ccc(-c2n[nH]c3ncc(-c4ccc5c(c4)CCC(C)(N4CCC[C@H]4C)CC5)cc23)cc1 (stereo partly drawn) [Example 72, N-(2-Methoxyethyl)-4-(5-{7-methyl-7-[(2R)-2-methylpyrrolidin-1-yl]-6,7,8,9-tetrahydro-5H-benzo[7]annulen-2-yl}-1H-pyrazolo[3,4-b]pyridin-3-yl)benzamide]
IC50 (Axl [1]): < 100 nM
IC50 (Axl [2]): < 100 nM

CCC1(N2CCC[C@H]2C)CCc2ccc(-c3cnc4[nH]nc(-c5ccc(C(N)=O)c(Cl)c5)c4c3)cc2CC1 (stereo partly drawn) [Example 73, 2-Chloro-4-(5-{7-ethyl-7-[(2R)-2-methylpyrrolidin-1-yl]-6,7,8,9-tetrahydro-5H-benzo[7]annulen-2-yl}-1H-pyrazolo[3,4-b]pyridin-3-yl)benzamide]
IC50 (Axl [1]): < 100 nM
IC50 (Axl [2]): < 100 nM

C[C@@H]1CCCN1C1(C)CCc2ccc(-c3cnc4[nH]nc(-c5ccc(C(=O)NC6CC6)cc5)c4c3)cc2CC1 (stereo partly drawn) [Example 69, N-Cyclopropyl-4-(5-{7-methyl-7-[(2R)-2-methylpyrrolidin-1-yl]-6,7,8,9-tetrahydro-5H-benzo[7]annulen-2-yl}-1H-pyrazolo[3,4-b]pyridin-3-yl)benzamide]
IC50 (Axl [1]): < 100 nM
IC50 (Axl [2]): < 100 nM

COC1CCN(C(=O)c2ccc(-c3n[nH]c4ncc(-c5ccc6c(c5)CC[C@@H](N5CCCC5)CC6)cc34)cc2Cl)CC1 [Example 66, (S)-(2-Chloro-4-(5-(7-(pyrrolidin-1-yl)-6,7,8,9-tetrahydro-5H-benzo[7]annulen-2-yl)-1H-pyrazolo[3,4-b]pyridin-3-yl)phenyl)(4-methoxypiperidin-1-yl)methanone]
IC50 (Axl [1]): < 100 nM
IC50 (Axl [2]): < 100 nM

Cc1cc2c(cc1-c1cnc3[nH]nc(-c4ccc(C(C)(C)O)c(Cl)c4)c3c1)CCC(N1CCC[C@H]1C)CC2 (stereo partly drawn) [Example 90, 2-[2-Chloro-4-(5-{3-methyl-7-[(2R)-2-methylpyrrolidin-1-yl]-6,7,8,9-tetrahydro-5H-benzo[7]annulen-2-yl}-1H-pyrazolo[3,4-b]pyridin-3-yl)phenyl]propan-2-ol]
IC50 (Axl [1]): 100 to 1000 nM
IC50 (Axl [2]): < 100 nM

C[C@@H]1CCCN1C1(C)CCc2ccc(-c3cnc4[nH]nc(-c5ccc(C(N)=O)c(Cl)c5)c4c3)cc2CC1 (stereo partly drawn) [Example 68, 2-Chloro-4-(5-{7-methyl-7-[(2R)-2-methylpyrrolidin-1-yl]-6,7,8,9-tetrahydro-5H-benzo[7]annulen-2-yl}-1H-pyrazolo[3,4-b]pyridin-3-yl)benzamide]
IC50 (Axl [1]): < 100 nM
IC50 (Axl [2]): < 100 nM

Cc1cc(-c2n[nH]c3ncc(-c4ccc5c(c4)CC[C@@H](N4CCCC4)CC5)cc23)cc(F)c1C(N)=O [Example 83, (S)-2-Fluoro-6-methyl-4-(5-(7-(pyrrolidin-1-yl)-6,7,8,9-tetrahydro-5H-benzo[7]annulen-2-yl)-1H-pyrazolo[3,4-b]pyridin-3-yl)benzamide]
IC50 (Axl [1]): < 100 nM
IC50 (Axl [2]): < 100 nM

C[C@@H]1CCCN1C1CCc2ccc(-c3cnc4[nH]nc(-c5ccc(C6(O)CCOC6)c(Cl)c5)c4c3)cc2CC1 (stereo partly drawn) [Example 63, 3-[2-Chloro-4-(5-{7-[(2R)-2-methylpyrrolidin-1-yl]-6,7,8,9-tetrahydro-5H-benzo[7]annulen-2-yl}-1H-pyrazolo[3,4-b]pyridin-3-yl)phenyl]oxolan-3-ol]
IC50 (Axl [1]): < 100 nM
IC50 (Axl [2]): < 100 nM
